PubChem BioAssay (NCI)
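The compound was tested at five concentrations on cells cultured in 96-well plates, with a 48-hour exposure period. Here, GI50 denotes the concentration required for 50% inhibition of growth. The concentration for full growth arrest is given as TGI.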

Columns and labels:
Assay in all cases: inhibition of tumour cell growth, NCI panel, 48 h
CAKI-1 renal = system: CAKI-1 renal
HCT-15 colon = system: HCT-15 colon
HS 578T breast = system: HS 578T breast
KM12 colon = system: KM12 colon
M14 melanoma = system: M14 melanoma
NCI-H23 lung = system: NCI-H23 lung
SF-268 CNS = system: SF-268 CNS
SK-MEL-28 melanoma = system: SK-MEL-28 melanoma
UO-31 renal = system: UO-31 renal
K-562 leukemia = system: K-562 leukemia

| SMILES | TGI (CAKI-1 renal) [µM] | TGI (HCT-15 colon) [µM] | TGI (HS 578T breast) [µM] | TGI (KM12 colon) [µM] | TGI (M14 melanoma) [µM] | TGI (NCI-H23 lung) [µM] | TGI (SF-268 CNS) [µM] | TGI (SK-MEL-28 melanoma) [µM] | TGI (UO-31 renal) [µM] | TGI (K-562 leukemia) [µM] | GI50 (CAKI-1 renal) [µM] | GI50 (HCT-15 colon) [µM] | GI50 (KM12 colon) [µM] | GI50 (M14 melanoma) [µM] | GI50 (NCI-H23 lung) [µM] | GI50 (SK-MEL-28 melanoma) [µM] | GI50 (UO-31 renal) [µM] | GI50 (HS 578T breast) [µM] | GI50 (SF-268 CNS) [µM] |
| --- | --- | --- | --- | --- | --- | --- | --- | --- | --- | --- | --- | --- | --- | --- | --- | --- | --- | --- | --- |
| CCCCCCCc1ccc(-c2nnc(N=Nc3ccc(OCCCCC)cc3)s2)s1 | > 100 | > 100 | > 100 | > 100 | > 100 | > 100 | > 100 | > 100 | > 100 | – | – | – | – | – | – | – | – | – | – |
| COC(=O)CC1CC2(C(=O)OC)c3[nH]c4ccccc4c3CCN2C1=O (stereo not given) | > 100 | > 100 | – | > 100 | > 100 | > 100 | > 100 | > 100 | > 100 | > 100 | – | – | – | – | – | – | – | – | – |
| O=C(NCc1ccccc1Cl)c1c(O)c2ccccc2[nH]c1=O | 96.6 | > 100 | > 100 | > 100 | – | > 100 | > 100 | > 100 | 33.4 | > 100 | – | – | – | – | – | – | – | – | – |
| C[n+]1c(-c2ccc(/C=N/NC(=O)C(=O)N/N=C/c3ccc(-c4cn5ccccc5[n+]4C)cc3)cc2)cn2ccccc21 | > 100 | > 100 | > 100 | > 100 | > 100 | > 100 | – | – | > 100 | > 100 | – | – | – | – | – | – | – | – | – |
| c1cncc([O][Ge]([O]c2cccnc2)([O]c2cccnc2)[O]c2cccnc2)c1 | > 100 | > 100 | – | > 100 | > 100 | > 100 | – | > 100 | > 100 | – | > 100 | > 100 | > 100 | > 100 | > 100 | > 100 | > 100 | – | – |
| Cc1cc(C)n2c(nc3ccccc32)c1C#N | > 100 | > 100 | – | – | > 100 | > 100 | – | > 100 | > 100 | > 100 | – | – | – | – | – | – | – | – | – |
| COc1cccc(CCCNC(=O)Cc2ccccc2CO)c1 | > 100 | > 100 | > 100 | > 100 | > 100 | > 100 | – | > 100 | > 100 | > 100 | – | – | – | – | – | – | – | – | – |
| CC(C)(CN1CCCCC1)C(=O)CC(SCCS(=O)(=O)O)c1ccc(Cl)cc1 (stereo not given) | 18.3 | 6.66 | 7.5 | 19.2 | 9.19 | 16.6 | – | – | 15.1 | 9.91 | – | – | – | – | – | – | – | – | – |
| Cc1nc(Cc2n[nH]c(C)n2)n[nH]1 | – | > 100 | – | > 100 | > 100 | > 100 | > 100 | – | > 100 | > 100 | – | – | – | – | – | – | – | – | – |
| CCOC(=O)c1c(-c2ccccc2)c(C)cn1C | – | > 10 | > 10 | > 10 | > 10 | > 10 | > 10 | – | > 10 | > 10 | – | – | – | – | – | – | – | – | – |
| COc1cccc(N=NN2CCCC2)c1 | > 100 | > 100 | > 100 | > 100 | > 100 | > 100 | > 100 | – | > 100 | > 100 | – | – | – | – | – | – | – | – | – |
| COc1ccc(C23OCC(Cc4cc(OC)c(OC)cc42)C3CO)cc1OC (stereo not given) | > 100 | > 100 | – | > 100 | > 100 | > 100 | – | > 100 | > 100 | > 100 | – | – | – | – | – | – | – | – | – |
| O=C(c1ccccc1)c1cc(Cl)ccc1NCn1nnc2ccccc21 | – | > 100 | – | > 100 | > 100 | > 100 | – | – | > 100 | > 100 | – | – | – | – | – | – | – | – | – |
| Cc1ccc(NC(=O)C(=O)Cc2cccc[n+]2[O-])cc1C | > 100 | > 100 | – | > 100 | > 100 | > 100 | > 100 | > 100 | > 100 | > 100 | – | – | – | – | – | – | – | – | – |
| c1ccc(Nc2nnc(CCCCCCCCc3nnc(Nc4ccccc4)o3)o2)cc1 | > 100 | > 100 | – | > 100 | > 100 | > 100 | > 100 | > 100 | > 100 | > 100 | – | – | – | – | – | – | – | – | – |
| O=c1c2cc(I)ccc2nc(-c2cccs2)n1O | 98.4 | > 100 | – | > 100 | > 100 | > 100 | > 100 | > 100 | > 100 | > 100 | – | – | – | – | – | – | – | – | – |
| CSc1nc(C)c2c(n1)N(c1ccc(Cl)cc1)CC2 | > 100 | > 100 | > 100 | > 100 | > 100 | > 100 | > 100 | > 100 | – | > 100 | – | – | – | – | – | – | – | – | – |
| O=C(/C(=C/c1ccc(O)cc1)c1ccccc1)c1ccccc1 | 38.2 | 31.9 | – | 29.1 | 30.9 | 30.7 | 34.6 | 31.9 | 29.4 | 44.4 | – | – | – | – | – | – | – | – | – |
| CC(=O)[C@]1(O)Cc2c(O)c3c(c(O)c2[C@@H](OC2CC(N)C(O)C(C)O2)C1)C(=O)c1c(OCc2ccccc2)cccc1C3=O (stereo not given in full) | 12 | 2.75 | 2.29 | – | 2.89 | 6.9 | 11.7 | 2.91 | 8.79 | 2.68 | – | – | – | – | – | – | – | – | – |
| N#Cc1c(N)nc(Sc2ccccc2N)c(C#N)c1-c1ccccc1 | > 100 | > 100 | – | 94.8 | > 100 | 63.7 | 75.3 | > 100 | 34.3 | > 100 | – | – | – | – | – | – | – | – | – |
| CCN(CC)CCNc1ccc([N+](=O)[O-])c2sc3cc(Cl)ccc3c(=O)c12 | – | > 100 | 37.1 | 53.6 | > 100 | > 100 | 46.9 | – | – | – | – | 2.7 | 6.77 | 3.1 | 13.9 | – | – | 4.41 | 9.88 |
| COc1ccc2c(c1)CC[C@@H]1C2CC[C@]2(C)C(=C=CP(=O)(O)O)CCC12 (stereo not given in full) | > 100 | > 100 | > 100 | > 100 | > 100 | > 100 | > 100 | > 100 | – | > 100 | – | – | – | – | – | – | – | – | – |
